The target of series [1] is T1, Corticotropin releasing factor receptor (Rattus norvegicus, UniProt P47866+P35353). Description: Compound was tested for the binding affinity to rat Corticotropin releasing factor (rCRF) receptors. In kind it is protein assay.
A short description of series [2]: Pharmacokinetic profile (5 mg/kg) in rat for Oral bioavailability. In kind it is ADME, organism-based. To be noted: in vivo.
Series [3] in a line: Compound was tested for the max. conc. when administered perorally(po) 30 mg/kg. The series is classed as ADME, organism-based. Also noted: dose 30 mg/kg, route oral. To be noted: in vivo.
Series [4] is described as follows: Compound was tested for bioavailability when administered intraperitoneally. In kind it is ADME, organism-based. To be noted: eutheria, in vivo, ip.
Series [5] in a line: Compound was tested for bioavailability when administered perorally. The series is classed as ADME, organism-based. Particulars: eutheria, in vivo, po.
Series [6] in a line: Compound was tested for the max. conc. when administered intraperitoneally (ip) 30 mg/kg. The series is classed as ADME, organism-based. To be noted: in vivo. On the set-up: dose 30 mg/kg, route intraperitoneal.
For series [7], the target named is T2, Corticotropin-releasing factor receptor 1 (Homo sapiens, UniProt P34998).
T2 sequence (P34998 whole entry): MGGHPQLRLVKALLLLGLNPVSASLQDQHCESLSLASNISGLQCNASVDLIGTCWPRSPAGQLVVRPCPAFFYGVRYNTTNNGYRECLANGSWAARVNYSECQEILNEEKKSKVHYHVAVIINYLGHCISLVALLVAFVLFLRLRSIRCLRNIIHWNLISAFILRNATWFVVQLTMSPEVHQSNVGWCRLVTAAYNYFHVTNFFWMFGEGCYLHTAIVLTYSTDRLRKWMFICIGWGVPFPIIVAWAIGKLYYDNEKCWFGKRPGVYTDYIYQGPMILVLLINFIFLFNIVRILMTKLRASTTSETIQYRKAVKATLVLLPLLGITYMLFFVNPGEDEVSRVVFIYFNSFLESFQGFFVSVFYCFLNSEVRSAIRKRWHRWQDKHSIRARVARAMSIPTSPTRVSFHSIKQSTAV
Description: Compound was tested for the binding affinity to human corticotropin releasing factor receptor.

Series [8] in a line: Oral bioavailability is reported, after administering 1 mg/kg (intravenously and orally ) to dogs. In kind it is ADME, organism-based, Canis lupus familiaris. Particulars: dog, in vivo.
Series [9] addresses T2, Corticotropin-releasing factor receptor 1. Description: Inhibition of corticotropin releasing factor receptor mediated increase in cAMP level using HEK293 cells expressing h-CRF1 receptor. The series is classed as cell-based. For orientation: cAMP levels reflect the balance of adenylyl cyclase and phosphodiesterase activity.
Series [10] is filed under the species Rattus norvegicus. Description: 50% inhibitory concentration to antagonize ACTH secretion. In kind it is functional. To be noted: read-out: ID50 (the source's name).
In series [11] the test system is Rattus norvegicus. As to the kind of experiment: Dose (ip) that completely reverses the r/h-CRF-enhanced acoustic startle of rats. The series is classed as functional.
Series [12] concerns the target T2, Corticotropin-releasing factor receptor 1. Description: Antagonist potency in hCRF1 stimulated adenylate cyclase assay. The series is classed as functional.
Series [13] has the same target. As to the kind of experiment: Compound was tested for the binding affinity to human corticotropin releasing factor 1 (hCRF1) receptors.
Series [14] has as its target T3, Corticotropin-releasing factor receptor 2 (Homo sapiens, UniProt Q13324).
T3 sequence (Q13324 whole entry): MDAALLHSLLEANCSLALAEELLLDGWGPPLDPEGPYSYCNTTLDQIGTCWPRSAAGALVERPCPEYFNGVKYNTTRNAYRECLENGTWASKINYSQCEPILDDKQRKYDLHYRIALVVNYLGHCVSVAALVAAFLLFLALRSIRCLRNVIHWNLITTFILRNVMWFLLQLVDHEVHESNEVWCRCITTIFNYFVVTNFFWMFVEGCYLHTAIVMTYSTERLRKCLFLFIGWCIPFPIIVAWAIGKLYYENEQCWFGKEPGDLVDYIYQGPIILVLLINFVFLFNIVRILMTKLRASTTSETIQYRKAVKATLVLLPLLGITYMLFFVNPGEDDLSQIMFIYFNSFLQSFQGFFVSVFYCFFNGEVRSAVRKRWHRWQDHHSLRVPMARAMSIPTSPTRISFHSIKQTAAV
Description: Compound was tested for the binding affinity to human corticotropin releasing factor receptor (hCRF2).

Series [15] can be described thus: Half life period when administered 1 mg/kg intravenously in rat. Particulars: in vivo, iv. Also noted: dose 1 mg/kg, route intravenous. The series is classed as ADME, organism-based.
A short description of series [16]: Plasma administered 1 mg/kg intravenously in rat. The series is classed as ADME, organism-based. Also noted: dose 1 mg/kg, route intravenous. Particulars: iv.
Series [17] addresses T2, Corticotropin-releasing factor receptor 1. As to the kind of experiment: Effective concentration to stimulate the human corticotropin releasing factor receptor using agonist-stimulated adenylate cyclase assay. The series is classed as functional.
For series [18], the species on record is Rattus norvegicus. As to the kind of experiment: Percent control value is reported, after studying ability to inhibit CRF-stimulated release of ACTH in rats. The series is classed as functional. Also noted: scale not given: the % may be the effect or the level left.
Series [19] deals with T1, Corticotropin releasing factor receptor. Description: Compound was tested for the binding affinity to rat ccorticotropin releasing factor receptor. The series is classed as protein assay.
A short description of series [20]: Compound was tested for the binding affinity to mouse Corticotropin releasing factor receptor 2 beta.
In series [21] the target is T2, Corticotropin-releasing factor receptor 1. As to the kind of experiment: Inhibition of corticotropin releasing factor receptor mediated increase in adenylate cyclase activity was evaluated.
A short description of series [22]: oral pharmacokinetic parameter, Half-life period was reported in dogs. Particulars: dog, in vivo. The series is classed as ADME, organism-based, Canis lupus familiaris.
Series [23] can be described thus: oral pharmacokinetic parameter, Oral bioavailability was reported in rats. The series is classed as ADME, organism-based. To be noted: rat, in vivo.
A short description of series [24]: (§1) oral pharmacokinetic parameter, Half-life period was reported in rats. In kind it is ADME, organism-based. Particulars: rat, in vivo.
Series [25] can be described thus: oral pharmacokinetic parameter, Maximum concentration was reported in dogs. In kind it is ADME, organism-based, Canis lupus familiaris. Also noted: route oral. Particulars: dog, in vivo.
Series [26] is described as follows: oral pharmacokinetic parameter, Oral bioavailability was reported in dogs. To be noted: dog, in vivo. The series is classed as ADME, organism-based, Canis lupus familiaris.
Series [27] is described as follows: as §1. The series is classed as ADME, organism-based. Particulars: rat, in vivo. The source holds these as a separate data set.
For series [28], the target named is T1, Corticotropin releasing factor receptor. Description: (§2) Compound was tested for the binding affinity to rat corticotropin releasing factor receptor. The series is classed as protein assay.
Series [29] has the same target. The description is as §2. In kind it is protein assay. The source holds these as a separate data set.
For series [30] the target is unchanged. As to the kind of experiment: Effective concentration to inhibit CRF-mediated increase in adenylate cyclase. The series is classed as protein assay.
The species entered for series [31] is Rattus norvegicus. As to the kind of experiment: Effective concentration to inhibit adenocorticotropic hormone (ACTH) release from primary cultures of rat pituitary cells. The series is classed as functional, cell-based. To be noted: Pituitary gland cell.

As usually defined, the Ki is a measure of affinity in units of concentration, obtained from inhibition or displacement. What is called bioavailability is the share of a dose that reaches the circulation, judged against a reference dose that is usually intravenous. For orientation: Cmax means the peak of the concentration-time curve. The term IC50 denotes the midpoint of a concentration-inhibition curve. Usually EC50 stands for the concentration that produces a half-maximal response. One may read the half-life as the time needed for the level to fall by half in the phase considered. By clearance is commonly meant a measure of how efficiently the substance is removed, as volume per time.

The structures appear in SMILES notation. Bounds are passed on as bounds.

Take `Cc1cc(N2CCOCC2)c2ccn(-c3ccc(C(C)C)cc3Br)c2n1`: the inhibition constant Ki in series [1] was 28 nM.

Regarding `CCN(c1nc(C)nc(N2CCOCC2)n1)c1c(Br)cc(OC)cc1OC.CS(=O)(=O)O`, the bioavailability in series [2] stood at 20%.

For `CCN(c1nc(C)cc(C)n1)c1c(Br)cc(OC)cc1OC`, the Cmax in series [3] came out at 366 nM; in series [6] it was 1880 nM. Moreover, the bioavailability turned out to be 26% in series [4] and 4% in [5].

The compound `COCC(COC)n1nnc2c(Nc3c(C)cc(C)cc3Cl)nc(C)cc21.CS(=O)(=O)O` had a Ki in series [7] of 3.3 nM. This compound gave a bioavailability in series [8] of 59%. In series [9], the IC50 came to 75 nM.

As for `CCCCN(CC)c1nc(C)nc2c1c(C)cn2-c1c(C)cc(C)cc1C.Cl`, in the series filed under Rattus norvegicus [10], the ED50 amounted to 13 mg/kg. Moreover, in the series on Rattus norvegicus [11], the Dose is 17.8 mg/kg.

With `CCCN(CCC)c1cc(C)nc2c(-c3ccc(OC)cc3OC)c(C)nn12`, the EC50 in series [12] worked out at 142 nM. Also, the Ki in [13] is 2.8 nM; in [14], greater than 10000 nM.

As for `COCCN(CCOC)c1nc(C)nc2c1nnn2-c1ccc(C(C)C)cc1Br`, the half-life in [15] was 7.6 h. For the same compound, in series [16], the clearance was 50 mL/min/kg.

For the compound `CC[C@H](C)[C@H](NC(=O)[C@@H](NC(=O)[C@H](CC(=O)O)NC(=O)[C@H](CC(C)C)NC(=O)[C@H](CC(C)C)NC(=O)[C@H](CC(C)C)NC(=O)[C@H](CCCNC(=N)N)NC(=O)[C@H](CC(N)=O)NC(=O)[C@H](CC(N)=O)NC(=O)[C@H](C)NC(=O)[C@H](C)NC(=O)[C@H](CCC(N)=O)NC(=O)[C@H](CCC(N)=O)NC(=O)[C@H](CCCCN)NC(=O)[C@H](CCC(=O)O)NC(=O)[C@H](CCCCN)NC(=O)[C@H](CCC(=O)O)NC(=O)[C@H](CCC(N)=O)NC(=O)[C@H](CCCCN)NC(=O)[C@H](CCC(=O)O)NC(=O)[C@@H](NC(=O)[C@H](CCC(=O)O)NC(=O)[C@@H](NC(=O)[C@H](CCSC)NC(=O)[C@H](CCCCN)NC(=O)[C@H](CCCNC(=N)N)NC(=O)[C@H](CC(C)C)NC(=O)[C@H](CC(C)C)NC(=O)[C@H](Cc1c[nH]cn1)NC(=O)[C@H](N)Cc1ccccc1)[C@@H](C)CC)[C@@H](C)CC)[C@@H](C)O)C(N)=O`, it took 3760 nM to reach a half-maximal effect in [17] (EC50).

`CO[C@@]12C(COC(N)=O)C3=C(C(=O)C(C)=C(NCCc4ccco4)C3=O)N1CC1NC12` (some centres not stated) displayed a Control in the series listed under Rattus norvegicus [18] of 50%. Further, the Ki in series [19] came to 110 nM; in series [20], 20 nM.

In series [21], `COCC(COC)Nc1nc(C)nc2c(-c3ccc(Cl)cc3Cl)c(C)nn12` gave a half-inhibitory concentration (IC50) of 82 nM. In addition, the half-life in series [22] is 33 h; in series [24] it was 16.5 h; in series [27], 16.5 h. In [23], this compound gave an F of 36.7%. The compound further displayed a Ki in series [7] of 1.8 nM. Besides, the highest level in series [25] (Cmax) was 240 nM. Besides, in series [26], the bioavailability stood at 50%.

On to `CCCN(CC1CC1)c1nc(C)nc(Nc2c(Cl)cc(Cl)cc2Cl)c1Cl`, for which the Ki was greater than 10000 nM in series [28] and 2 nM in [29]. The figures for the EC50 (in [30]; in the series listed under Rattus norvegicus [31]) were 150 nM and 70 nM, respectively.

The values above are taken from ChEMBL document CHEMBL1132922, “Corticotropin releasing factor (CRF) receptor modulators: progress and opportunities for new therapeutic agents” (J Med Chem, 2000).
